Results reported in patent US8747873B2, “Compositions of dibromomalonamide and their use as biocides” (Dow Global Technologies LLC, priority 2012, dated 2014).
Like-named read-outs stand apart in the source and are kept apart here.

Key:
[1] = system: mixture of Pseudomonas aeruginosa, Klebsiella pneumoniae, Staphylococcus aureus, and Bacillus subtilis; test: Growth inhibition assay; type: cell-based; details: for % Inhibition of growth by CTAC: Table 3, single active
Text: The growth inhibition assay used in the Examples measures inhibition of growth (or lack thereof) of a microbial consortium. Inhibition of growth can be the result of killing of the cells (so no growth occurs), killing of a significant portion of the populations of cells so that regrowth requires a prolonged time, or inhibition of growth without killing (stasis). Regardless of the mechanism of action, the impact of a biocide (or combination of biocides) can be measured over time on the basis of an increase in the size of the community.
The assay measures the efficacy of one or more biocides at preventing growth of a consortium of bacteria in a dilute mineral salts medium. The medium contains (in mg/l) the following components: FeCl3.6H2O (1); CaCl2.2H2O (10); MgSO4.7H2O (22.5); (NH4)2SO4 (40); KH2PO4 (10); K2HPO4 (25.5); Yeast Extract (10); and glucose (100). After all components are added to deionized water, the pH of the medium is adjusted to 7.5. Following filter sterilization, aliquots are dispensed in 100 ul quantities to sterile microtiter plate wells. Dilutions of DBMAL and/or “Biocide B” are then added to the microtiter plate. After preparing the combinations of actives as illustrated below, each well is inoculated with 100 μl of a cell suspension containing ca. 1×10^6 cells per milliliter of a mixture of Pseudomonas aeruginosa, Klebsiella pneumoniae, Staphylococcus aureus, and Bacillus subtilis. The final total volume of medium in each well is 300 μl. […] The resulting matrix allows testing of eight concentrations of each active and 64 combinations of actives in the ratios (of actives).
Controls (not shown) contain the medium with no biocide added. After preparing the combinations of actives as illustrated above, each well is inoculated with 100 μl of a cell suspension containing ca. 1×10^6 cells per milliliter of a mixture of Pseudomonas aeruginosa, Klebsiella pneumoniae, Staphylococcus aureus, and Bacillus subtilis. The final total volume of medium in each well is 300 μl.
Immediately after the microtiter plates are prepared, the optical density (OD) readings for each well is measured at 580 nm and the plates are then incubated at 37° C. for 24 hr. After the incubation period, the plates are gently agitated before OD580 values are collected. The OD580 values at T0 are subtracted from T24 values to determine the total amount of growth (or lack thereof) that occurs. These values are used to calculate the percent inhibition of growth caused by the presence of each biocide and each of the 64 combinations. A 90% inhibition of growth is used as a threshold for calculating synergy index (SI) values with the following equation: Synergy Index=MDBMAL/CDBMAL+MB/CB
where • CDBMAL: Concentration of DBMAL required to inhibit ˜90% of bacterial growth when used alone • CB: Concentration of biocide (B) required to inhibit ˜90% of bacterial growth when used alone. • MDBMAL: Concentration of DBMAL required to inhibit ˜90% of bacterial growth when used in combination with biocide (B). • MB: Concentration of biocide (B) required to inhibit ˜90% of bacterial growth when used in combination with DBMAL The SI values are interpreted as follows: • SI<1: Synergistic combination • SI=1: Additive combination • SI>1: Antagonistic combination

[2] = system: mixture of Pseudomonas aeruginosa ATCC 10145 and Staphylococcus aureus ATCC 6538; test: Kill assay (MBC, synergy index); type: cell-based; details: 37° C., 2 hours
Procedure: This assay is used as a preliminary evaluation of synergy between the actives. The procedure is as follows. A mineral salts solution (0.2203 g of CaCl2, 0.1847 g of MgSO4, and 0.2033 g of NaHCO3 in 1 L water, approximately pH 8) is inoculated with equal amounts (about 10^7 CFU/ml) of a mixture of Pseudomonas aeruginosa ATCC 10145 and Staphylococcus aureus ATCC 6538. Aliquots of the cell suspension are then treated with 2,2-dibromomalonamide (“DBMAL”), […], and their combinations at various concentration levels. […] The MBC values are then used to calculate a synergy index (SI) values.
Summaries of the kill assay results are presented in the individual Examples. In each table, MBC values for each biocide and the blends tested are presented Likewise, the Synergy Index (“SI”) values for the combinations are listed. SI is calculated with the following equation: Synergy Index=Ca/CA+Mb/CB […]

Q: With `CC1(C)COCN1` [4,4-D, 4,4-Dimethyloxazolidine] as the molecule, how does the inhibition at 7.81 µg/mL ([1]; 24 h, 4,4-D alone 7.81 mg/l, read-out: % Inhibition of growth by 4,4-D) read?
A: 0%

Q: And the inhibition at 15.63 µg/mL ([1]; 24 h, 4,4-D alone 15.63 mg/l, read-out: % Inhibition of growth by 4,4-D)?
A: 2%

Q: And the inhibition at 31.25 µg/mL ([1]; 24 h, 4,4-D alone 31.25 mg/l, read-out: % Inhibition of growth by 4,4-D)?
A: 13%

Q: What about the inhibition at 62.5 µg/mL ([1]; 24 h, 4,4-D alone 62.5 mg/l, read-out: % Inhibition of growth by 4,4-D) of the same molecule?
A: 98%

Q: And the inhibition at 125 µg/mL ([1]; 24 h, 4,4-D alone 125.0 mg/l, read-out: % Inhibition of growth by 4,4-D)?
A: 100%

Q: What about the inhibition at 250 µg/mL ([1]; 24 h, 4,4-D alone 250.0 mg/l, read-out: % Inhibition of growth by 4,4-D) of the same molecule?
A: 99%

Q: What about the inhibition at 500 µg/mL ([1]; 24 h, 4,4-D alone 500.0 mg/l, read-out: % Inhibition of growth by 4,4-D) of the same molecule?
A: 100%

Q: What about the inhibition at 1000 µg/mL ([1]; 24 h, 4,4-D alone 1000.0 mg/l, read-out: % Inhibition of growth by 4,4-D) of the same molecule?
A: 100%

Q: Which inhibition at 0.19 µg/mL ([1]; 24 h, TEHT alone 0.19 mg/l, read-out: % Inhibition of growth by TEHT) does the source give for `CCN1CN(CC)CN(CC)C1` [TEHT, 1,3,5-Triethylhexahydro-s-triazine] here?
A: 10%

Q: And the inhibition at 0.39 µg/mL ([1]; 24 h, TEHT alone 0.39 mg/l, read-out: % Inhibition of growth by TEHT)?
A: 11%

Q: What about the inhibition at 0.78 µg/mL ([1]; 24 h, TEHT alone 0.78 mg/l, read-out: % Inhibition of growth by TEHT) of the same molecule?
A: 10%

Q: And the inhibition at 1.56 µg/mL ([1]; 24 h, TEHT alone 1.56 mg/l, read-out: % Inhibition of growth by TEHT)?
A: 22%

Q: And the inhibition at 3.13 µg/mL ([1]; 24 h, TEHT alone 3.13 mg/l, read-out: % Inhibition of growth by TEHT)?
A: 49%

Q: And the inhibition at 6.25 µg/mL ([1]; 24 h, TEHT alone 6.25 mg/l, read-out: % Inhibition of growth by TEHT)?
A: 82%

Q: What about the inhibition at 12.5 µg/mL ([1]; 24 h, TEHT alone 12.5 mg/l, read-out: % Inhibition of growth by TEHT) of the same molecule?
A: 98%

Q: What about the inhibition at 25 µg/mL ([1]; 24 h, TEHT alone 25.0 mg/l, read-out: % Inhibition of growth by TEHT) of the same molecule?
A: 100%

Q: For `CCC12COCN1COC2` [EBO, 7-ethyl bicyclooxazolidine], which “% Inhibition of growth by EBO” value ([1]; EBO alone 7.81 mg/l, 24 h) is on record?
A: 0%

Q: And the “% Inhibition of growth by EBO” value ([1]; EBO alone 15.63 mg/l, 24 h)?
A: 0%

Q: And the “% Inhibition of growth by EBO” value ([1]; EBO alone 31.25 mg/l, 24 h)?
A: 0%

Q: What about the “% Inhibition of growth by EBO” value ([1]; EBO alone 62.5 mg/l, 24 h) of the same molecule?
A: 3%

Q: What about the “% Inhibition of growth by EBO” value ([1]; EBO alone 125.0 mg/l, 24 h) of the same molecule?
A: 10%

Q: And the “% Inhibition of growth by EBO” value ([1]; EBO alone 250.0 mg/l, 24 h)?
A: 71%

Q: And the “% Inhibition of growth by EBO” value ([1]; EBO alone 500.0 mg/l, 24 h)?
A: 96%

Q: And the “% Inhibition of growth by EBO” value ([1]; EBO alone 1000.0 mg/l, 24 h)?
A: 100%

Q: How did the “% Inhibition of growth by CTAC” value ([1]; CTAC Concn. 3.91 mg/l, 24 h) turn out when “1-(3-chloroallyl)-3,5,7-triaza-1-azoniaadamantane chloride [CTAC]” was run?
A: 0%

Q: What about the “% Inhibition of growth by CTAC” value ([1]; CTAC Concn. 7.81 mg/l, 24 h) of the same molecule?
A: 18%

Q: And the “% Inhibition of growth by CTAC” value ([1]; CTAC Concn. 15.63 mg/l, 24 h)?
A: 20%

Q: What about the “% Inhibition of growth by CTAC” value ([1]; CTAC Concn. 31.25 mg/l, 24 h) of the same molecule?
A: 21%

Q: What about the “% Inhibition of growth by CTAC” value ([1]; CTAC Concn. 62.5 mg/l, 24 h) of the same molecule?
A: 0%

Q: What about the “% Inhibition of growth by CTAC” value ([1]; CTAC Concn. 125.0 mg/l, 24 h) of the same molecule?
A: 100%

Q: What about the “% Inhibition of growth by CTAC” value ([1]; CTAC Concn. 250.0 mg/l, 24 h) of the same molecule?
A: 100%

Q: And the “% Inhibition of growth by CTAC” value ([1]; CTAC Concn. 500.0 mg/l, 24 h)?
A: 100%

Q: `ClC=CC[N+]12CN3CN(CN(C3)C1)C2` [CTAC, 1-(3-chloroallyl)-3,5,7-triaza-1-azoniaadamantane chloride] was tested. Which inhibition at 1.95 µg/mL ([1]; 24 h, Table 6, CTAC alone 1.95 mg/l) did it give?
A: 0%

Q: And the inhibition at 3.91 µg/mL ([1]; 24 h, Table 6, CTAC alone 3.91 mg/l)?
A: 0%

Q: What about the inhibition at 7.81 µg/mL ([1]; 24 h, Table 6, CTAC alone 7.81 mg/l, read-out: % Inhibition of growth by CTAC) of the same molecule?
A: 9%

Q: What about the inhibition at 15.625 µg/mL ([1]; 24 h, Table 6, CTAC alone 15.625 mg/l) of the same molecule?
A: 0%

Q: What about the inhibition at 31.25 µg/mL ([1]; 24 h, Table 6, CTAC alone 31.25 mg/l, read-out: % Inhibition of growth by CTAC) of the same molecule?
A: 35%

Q: What about the inhibition at 62.5 µg/mL ([1]; 24 h, Table 6, CTAC alone 62.5 mg/l, read-out: % Inhibition of growth by CTAC) of the same molecule?
A: 41%

Q: What about the inhibition at 125 µg/mL ([1]; 24 h, Table 6, CTAC alone 125.0 mg/l, read-out: % Inhibition of growth by CTAC) of the same molecule?
A: 100%

Q: And the inhibition at 250 µg/mL ([1]; 24 h, Table 6, CTAC alone 250.0 mg/l, read-out: % Inhibition of growth by CTAC)?
A: 98%

Q: What does the source list for `O=[N+]([O-])C(CO)(CO)CO` [TN, tris(hydroxymethyl)nitromethane]?
A: inhibition at 7.81 µg/mL ([1]; 24 h, TN alone 7.81 mg/l, read-out: % Inhibition of growth by TN): 0%; inhibition at 15.63 µg/mL ([1]; 24 h, TN alone 15.63 mg/l, read-out: % Inhibition of growth by TN): 4%; inhibition at 31.25 µg/mL ([1]; 24 h, TN alone 31.25 mg/l, read-out: % Inhibition of growth by TN): 0%; inhibition at 62.5 µg/mL ([1]; 24 h, TN alone 62.5 mg/l, read-out: % Inhibition of growth by TN): 50%; inhibition at 125 µg/mL ([1]; 24 h, TN alone 125.0 mg/l, read-out: % Inhibition of growth by TN): 100%; inhibition at 250 µg/mL ([1]; 24 h, TN alone 250.0 mg/l, read-out: % Inhibition of growth by TN): 100%; inhibition at 500 µg/mL ([1]; 24 h, TN alone 500.0 mg/l, read-out: % Inhibition of growth by TN): 100%; inhibition at 1000 µg/mL ([1]; 24 h, TN alone 1000.0 mg/l, read-out: % Inhibition of growth by TN): 100%

Q: How did the “concentration needed to provide at least 90% inhibition of growth” value ([1]; biocide alone, 24 h) turn out when `O=CCCCC=O` [Glut, glutaraldehyde] was run?
A: 125 mg/L

Q: What about the “MBC (minimum biocide concentration needed to completely kill), biocide alone” value [2] of the same molecule?
A: 29.6 mg/L
